Measured values: ChEMBL document CHEMBL4184132, “Chrodrimanins K-N and Related Meroterpenoids from the Fungus Penicillium sp. SCS-KFD09 Isolated from a Marine Worm, Sipunculus nudus” (J Nat Prod, 2017)
≈ marks a conversion by molar mass, not a printed value.

Assays:
Staphylococcus aureus = experiment: Antimicrobial activity against Staphylococcus aureus by XTT assay; format: functional
Influenza A virus = experiment: Antiviral activity against Influenza A virus (A/Puerto Rico/8/34(H1N1)) infected in MDCK cells assessed as protection against virus-induced cytopathogenicity after 48 hrs by crystal-violet staining-based assay; format: functional, organism-based; conditions: A/Puerto Rico/8/1934(H1N1)

**Q.** With `CN[C@@H]1[C@@H](O)[C@@H](O[C@@H]2[C@@H](O)[C@H](O[C@H]3O[C@H](CN)CC[C@H]3N)[C@@H](N)C[C@H]2N)OC[C@]1(C)O.O=S(=O)(O)O` as the molecule, how does the MIC (Staphylococcus aureus) read?
**A.** Its MIC is 4 µg/mL.

**Q.** With `CC(=O)O[C@@H]1c2c3c(cc(O)c2C(=O)O[C@@H]1C)O[C@@]1(C)[C@@H](O)C[C@H]2C(C)(C)C(=O)CC[C@]2(C)[C@@H]1C3` as the molecule, how does the IC50 (Influenza A virus) read?
**A.** The IC50 was 58 µM.

**Q.** For `C[C@@H]1Cc2c3c(c(Cl)c(O)c2C(=O)O1)O[C@@]1(C)[C@@H](O)C[C@H]2C(C)(C)C(=O)C=C[C@]2(C)[C@@H]1C3`, which IC50 (Influenza A virus) is on record?
**A.** Its IC50 is 74 µM.

**Q.** For `C/C(=C\Cc1c(O)cc(O)c2c1C[C@@H](C)OC2=O)CCC(O)[C@@]1(C)CC[C@@H](C(C)(C)O)O1` (stereo partly specified), which MIC (Staphylococcus aureus) is on record?
**A.** The MIC was 32 µg/mL (≈ 71.3 µM).

**Q.** For `C[C@@H]1Cc2c3c(cc(O)c2C(=O)O1)O[C@@]1(C)CC[C@H]2C(C)(C)C(=O)CC[C@]2(C)[C@@H]1C3`, which IC50 (Influenza A virus) is on record?
**A.** Its IC50 is 34 µM.

**Q.** `NC(=O)c1ncn([C@@H]2O[C@H](CO)[C@@H](O)[C@H]2O)n1` [RIBAVIRIN] was tested. Which IC50 (Influenza A virus) did it give?
**A.** Its IC50 is 103 µM.
